Test results published in patent US11447487B2, “Spiroheptanyl hydantoins as rock inhibitors” (BRISTOL-MYERS SQUIBB COMPANY, priority 2017, dated 2022).

Each molecule was assayed against ROCK2 (Homo sapiens (Human), UniProt O75116) (assay: ROCK assay (Caliper LABCHIP peptide phosphorylation)). Settings: 5 μM ATP, 1.5 μM peptide substrate.
Assay type: biochemical
Description: The effectiveness of compounds of the present invention as ROCK inhibitors can be determined in a 30 μL assay containing 20 mM HEPES, pH 7.5, 20 mM MgCl2, 0.015% Brij-35, 4 mM DTT, 5 μM ATP and 1.5 μM peptide substrate (FITC-AHA-AKRRRLSSLRA-OH) (SEQ ID No. 1). Compounds were dissolved in DMSO so that the final concentration of DMSO was <2%, and the reaction was initiated with Rho kinase variants. After incubation, the reaction was terminated by the addition of EDTA and the phosphorylated and non-phosphorylated peptides separated using a LABCHIP® 3000 Reader (Caliper Life Sciences). […] Compounds were tested in dose-response format, and the inhibition of kinase activity was calculated at each concentration of compound. The inhibition data were fit using a curve-fitting program to determine the IC50; i.e., the concentration of compound required to inhibit 50% of kinase activity. Representative Examples were tested in the ROCK assay described above and found having ROCK inhibitory activity. A range of ROCK inhibitory activity (IC50 values) of ≤50 μM (50000 nM) was observed. Table A below lists the ROCK IC50 values measured for the following examples.

Chain of ROCK2 (O75116 whole entry, species assumed): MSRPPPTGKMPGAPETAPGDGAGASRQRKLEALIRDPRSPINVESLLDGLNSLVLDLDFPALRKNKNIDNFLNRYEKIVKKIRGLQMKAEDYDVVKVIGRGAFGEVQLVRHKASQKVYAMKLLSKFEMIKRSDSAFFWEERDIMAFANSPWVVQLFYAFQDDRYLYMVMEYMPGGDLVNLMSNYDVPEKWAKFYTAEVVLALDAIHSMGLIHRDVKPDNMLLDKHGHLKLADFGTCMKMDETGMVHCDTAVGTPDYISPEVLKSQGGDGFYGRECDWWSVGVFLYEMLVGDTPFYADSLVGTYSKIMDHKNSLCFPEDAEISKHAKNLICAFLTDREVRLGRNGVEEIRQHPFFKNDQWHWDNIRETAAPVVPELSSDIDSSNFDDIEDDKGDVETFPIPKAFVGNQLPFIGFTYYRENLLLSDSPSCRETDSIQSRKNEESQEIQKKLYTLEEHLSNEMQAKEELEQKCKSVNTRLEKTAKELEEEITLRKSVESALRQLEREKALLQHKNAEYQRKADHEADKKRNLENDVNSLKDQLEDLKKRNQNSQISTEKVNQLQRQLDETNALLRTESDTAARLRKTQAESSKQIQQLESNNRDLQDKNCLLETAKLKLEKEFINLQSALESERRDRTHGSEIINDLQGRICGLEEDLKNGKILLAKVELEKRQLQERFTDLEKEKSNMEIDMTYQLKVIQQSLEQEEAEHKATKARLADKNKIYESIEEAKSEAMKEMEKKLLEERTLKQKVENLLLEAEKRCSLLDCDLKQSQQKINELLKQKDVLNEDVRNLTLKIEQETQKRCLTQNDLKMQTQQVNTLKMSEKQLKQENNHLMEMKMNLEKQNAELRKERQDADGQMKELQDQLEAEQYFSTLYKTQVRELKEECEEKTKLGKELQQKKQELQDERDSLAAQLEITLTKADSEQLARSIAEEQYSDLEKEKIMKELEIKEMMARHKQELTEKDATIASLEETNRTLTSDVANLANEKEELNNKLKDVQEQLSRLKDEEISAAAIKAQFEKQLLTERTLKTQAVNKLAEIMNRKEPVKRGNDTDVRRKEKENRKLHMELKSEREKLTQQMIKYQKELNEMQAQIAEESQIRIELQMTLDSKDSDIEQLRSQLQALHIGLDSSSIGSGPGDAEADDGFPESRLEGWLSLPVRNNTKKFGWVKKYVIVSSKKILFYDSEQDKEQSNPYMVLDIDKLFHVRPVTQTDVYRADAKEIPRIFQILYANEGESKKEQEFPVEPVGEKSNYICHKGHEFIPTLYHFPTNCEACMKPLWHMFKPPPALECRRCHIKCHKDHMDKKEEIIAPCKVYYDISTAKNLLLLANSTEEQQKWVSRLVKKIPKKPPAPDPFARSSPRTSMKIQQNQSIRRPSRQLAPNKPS

| IC50 | Molecule |
| --- | --- |
| 2 nM | [H][C@]1(Oc2ncccc2C(N)=O)C[C@]2(C[C@@H](N3C(=O)CN(c4cccc(Cl)c4)C3=O)C2)C1 (stereo partly drawn) [Example 80, 2-(((aR)-6-(3-(3-chlorophenyl)-2,5-dioxoimidazolidin-1-yl)spiro[3.3]heptan-2-yl)oxy)nicotinamide] |
| 14 nM | NC(=O)c1cccnc1O[C@H]1C[C@]2(C1)C[C@H](N1C(=O)NC(CC3CCCC3)C1=O)C2 (single isomer, unassigned) [Example 40, 2-{[(αR)-6-[4-(cyclopentyl-methyl)-2,5-dioxo-imidazolidin-1-yl]-spiro[3.3]heptan-2-yl]oxy}pyridine-3-carboxamide] |
| 9 nM | C[C@@H](C[C@@H]1NC(=O)N([C@H]2C[C@@]3(C[C@H](Oc4ncccc4C(N)=O)C3)C2)C1=O)C(F)(F)F (stereo partly drawn) [Example 93, 2-(((αR)-6-((S)-2,5-dioxo-4-((S)-3,3,3-trifluoro-2-methylpropyl)imidazolidin-1-yl)spiro[3.3]heptan-2-yl)oxy)nicotinamide] |
| 3 nM | NC(=O)c1cccnc1OC1CC2(C1)CC(N1C(=O)CN(c3ccccc3OC(F)F)C1=O)C2 (stereo not shown) [Example 81, 2-(((αR)-6-(3-(2-(difluoromethoxy)phenyl)-2,5-dioxoimidazolidin-1-yl)spiro[3.3]heptan-2-yl)oxy)nicotinamide] |
| 2390 nM | COC[C@@H]1NC(=O)N([C@H]2C[C@@]3(C[C@H](Oc4ncccc4C(N)=O)C3)C2)C1=O (stereo partly drawn) [Example 36, 2-{[(αR)-6-[(4S)-4-(methoxymethyl)-2,5-dioxoimidazol-idin-1-yl]spiro-[3.3]heptan-2-yl]-oxy}pyridine-3-carboxamide] |
| 16 nM | NC(=O)c1cccnc1O[C@H]1C[C@]2(C1)C[C@H](N1C(=O)NC(CC3CC4CCC3C4)C1=O)C2 (stereo partly shown) [Example 69, 2-{[(αR)-6-[4-({bicyclo[2.2.1]-heptan-2-yl]}-methyl)-2,5-dioxo-imidazolidin-1-yl]-spiro[3.3]heptan-2-yljoxy}pyridine-3-carboxamide] |
| 56 nM | CCC(CC)CC1NC(=O)N([C@H]2C[C@@]3(C[C@H](Oc4ncccc4C(N)=O)C3)C2)C1=O (single isomer, unassigned) [Example 48, 2-{[(αR)-6-[4-(2-ethylbutyl)-2,5-dioxoimidazolidin-1-yl]spiro[3.3]-heptan-2-yl]oxy}-pyridine-3-carbox-amide] |
| 57 nM | CCCC[C@@H]1NC(=O)N([C@H]2C[C@@]3(C[C@H](Oc4ncccc4C(N)=O)C3)C2)C1=O (stereo partly drawn) [Example 28, 2-{[(αR)-6-[(4S)-4-butyl-2,5-dioxo-imidazolidin-1-yl]spiro[3.3]heptan-2-yl]oxy}pyridine-3-carboxamide] |
| 27 nM | CC(C)(CC1NC(=O)N([C@H]2C[C@@]3(C[C@H](Oc4ncccc4C(N)=O)C3)C2)C1=O)c1ccccc1 (stereo partly shown) [Example 94, 2-(((αR)-6-(2,5-dioxo-4-(2-phenyl-2-methylpropyl)imidazolidin-1-yl)spiro[3.3]heptan-2-yl)oxy)nicotinamide] |
| 2280 nM | NC(=O)c1cccnc1O[C@H]1C[C@]2(C1)C[C@H](N1C(=O)NC(Cc3ccncc3)C1=O)C2 (stereo partly shown) [Example 73, 2-{[(αR)-6-{2,5-dioxo-4-[(pyridin-4-yl)methyl]-imidazolidin-1-yl}-spiro[3.3]heptan-2-yl]oxy}pyridine-3-carboxamide] |
| 17 nM | 2-((((R)-6-(4-((1-adamantyl)methyl)-2,5-dioxoimidazolidin-1-yl)spiro[3.3]heptan-2-yl)oxy)nicotinamide [Example 68] |
| 22 nM | NC(=O)c1cccnc1O[C@H]1C[C@]2(C1)C[C@H](N1C(=O)NC(CCCC(F)(F)F)C1=O)C2 (single isomer, unassigned) [Example 42, 2-{[(αR)-6-[2,5-dioxo-4-(4,4,4-trifluorobutyl)-imidazolidin-1-yl]-spiro[3.3]heptan-2-yl]oxy}pyridine-3-carboxamide] |
| 28 nM | NC(=O)c1cccnc1O[C@H]1CC2(C1)C[C@H](N1C(=O)N[C@@H](CC3CCC(NC(=O)OCc4ccccc4)CC3)C1=O)C2 (stereo partly shown) [Example 97] |
| 1550 nM | NC(=O)c1cccnc1O[C@H]1C[C@]2(C1)C[C@H](N1C(=O)NC(CCCS(N)(=O)=O)C1=O)C2 (stereo partly shown) [Example 66, 2-{[(αR)-6-[2,5-dioxo-4-(3-sulfam-oylpropyl)imidazol-idin-1-yl]spiro-[3.3]heptan-2-yl]-oxy}pyridine-3-carboxamide] |
| 1710 nM | CC(C)(C)OC(=O)NCCC1NC(=O)N([C@H]2C[C@@]3(C[C@H](Oc4ncccc4C(N)=O)C3)C2)C1=O (single isomer, unassigned) [Example 20, tert-butyl N-(2-{2,5-dioxo-1-[(αR)-6-[(3-carbamoylpyridin-2-yl)oxy]spiro-[3.3]heptan-2-yl]-imidazolidin-4-yl}ethyl)carbamate] |
| 14 nM | CCCC(C)CC1NC(=O)N([C@H]2C[C@@]3(C[C@H](Oc4ncccc4C(N)=O)C3)C2)C1=O (stereo partly shown) [Example 39, 2-{[(αR)-6-[4-(2-methylpentyl)-2,5-dioxoimidazolidin-1-yl]spiro[3.3]-heptan-2-yl]oxy}-pyridine-3-carbox-amide] |

| IC50 | Molecule |
| --- | --- |
| 52 nM | NC(=O)c1cccnc1O[C@H]1C[C@]2(C1)C[C@H](N1C(=O)NC(CC3CCN(C(=O)OCc4ccccc4)CC3)C1=O)C2 (stereo partly shown) [Example 98, 2-(((αR)-6-(2,5-dioxo-4-(N-benzyloxycarbonyl-piperidin-4-ylmethyl)imidazolidin-1-yl)spiro[3.3]heptan-2-yl)oxy)nicotinamide] |
| 426 nM | NC(=O)c1cccnc1O[C@H]1C[C@]2(C1)C[C@H](N1C(=O)N[C@@H](CCOCc3ccccc3)C1=O)C2 (stereo partly drawn) [Example 33, 2-{[(αR)-6-[(4S)-4-[2-(benzyloxy)-ethyl]-2,5-dioxo-imidazolidin-1-yl]-spiro[3.3]heptan-2-yl]oxy}pyridine-3-carboxamide] |
| 55 nM | CC(C)(O)COc1cccc(N2CC(=O)N([C@H]3C[C@@]4(C[C@H](Oc5ncccc5C(N)=O)C4)C3)C2=O)c1 (stereo partly shown) [Example 88, 2-(((αR)-6-(3-(3-(2-hydroxy-2-methylpropoxy)phenyl)-2,5-dioxoimidazolidin-1-yl)spiro[3.3]heptan-2-yl)oxy)nicotinamide] |
| 259 nM | NC(=O)c1cccnc1O[C@H]1C[C@]2(C1)C[C@H](N1C(=O)NC(CCOC(F)(F)F)C1=O)C2 (single isomer, unassigned) [Example 57, 2-{[(αR)-6-{2,5-dioxo-4-[2-(tri-fluoromethoxy)-ethyl]imidazolidin-1-yl}spiro[3.3]-heptan-2-yl]oxy}-pyridine-3-carbox-amide] |
| 2950 nM | NC(=O)c1cccnc1O[C@H]1C[C@]2(C1)C[C@H](N1C(=O)NC(Cc3c[nH]cn3)C1=O)C2 (stereo partly shown) [Example 22] |
| 123 nM | CCC[C@@H]1NC(=O)N([C@H]2C[C@@]3(C[C@H](Oc4ncccc4C(N)=O)C3)C2)C1=O (stereo partly drawn) [Example 31, 2-{[(αR)-6-[(4S)-2,5-dioxo-4-propyl-imidazolidin-1-yl]-spiro[3.3]heptan-2-yl]oxy}pyridine-3-carboxamide] |
| 8 nM | [H][C@]1(Oc2ncccc2C(N)=O)C[C@]2(C[C@@H](N3C(=O)N[C@@H](CC(C)C)C3=O)C2)C1 (stereo partly shown) [Example 1] |
| 225 nM | NC(=O)c1cccnc1O[C@H]1C[C@]2(C1)C[C@H](N1C(=O)CN(CCc3ccccc3)C1=O)C2 (stereo partly shown) [Example 11] |
| 36 nM | CC(CCC1NC(=O)N([C@H]2C[C@@]3(C[C@H](Oc4ncccc4C(N)=O)C3)C2)C1=O)C(F)(F)F (stereo partly shown) [Example 71, 2-{[(αR)-6-[2,5-dioxo-4-(4,4,4-trifluoro-3-methyl-butyl)imidazolidin-1-yl]spiro[3.3]-heptan-2-yl]oxy}-pyridine-3-carbox-amide] |
| 52 nM | [H][C@]1(Oc2ncccc2C(N)=O)C[C@@]2(C[C@H](N3C(=O)N[C@@H](C[C@H]4CC[C@H](NC(=O)c5ccccc5)CC4)C3=O)C2)C1 (stereo partly shown) [Example 100] |
| 23 nM | NC(=O)c1cccnc1O[C@H]1C[C@]2(C1)C[C@H](N1C(=O)NC(CCC3CCCCCC3)C1=O)C2 (single isomer, unassigned) [Example 43, 2-{[(αR)-6-[4-(2-cycloheptylethyl)-2,5-dioxoimidazol-idin-1-yl]spiro-[3.3]heptan-2-yl]-oxy}pyridine-3-carboxamide] |
| 171 nM | NC(=O)c1cccnc1O[C@H]1C[C@]2(C1)C[C@H](N1C(=O)NC(CCC3CCCCCC3)C1=O)C2 (single isomer, unassigned) [Example 53, 2-{[(αR)-6-[4-(2-cycloheptylethyl)-2,5-dioxoimidazol-idin-1-yl]spiro-[3.3]-heptan-2-yl]-oxy}pyridine-3-carboxamide] |
| 197 nM | [H][C@]1(Oc2ncccc2C(N)=O)C[C@]2(C[C@@H](N3C(=O)N[C@@H](Cc4ccccc4)C3=O)C2)C1 (stereo partly shown) [Example 24] |
| 146 nM | NC(=O)c1cccnc1O[C@H]1C[C@]2(C1)C[C@H](N1C(=O)NC(CC3CCN(C(=O)c4ccccc4)CC3)C1=O)C2 (stereo partly shown) [Example 101, 2-(((αR)-6-(2,5-dioxo-4-(N-benzoylpiperidin-4-ylmethyl)imidazolidin-1-yl)spiro[3.3]heptan-2-yl)oxy)nicotinamide] |
| 659 nM | NC(=O)c1cccnc1O[C@H]1C[C@]2(C1)C[C@H](N1C(=O)NC(C[C@@H]3C[C@H]4CC[C@@H](C3)N4C(=O)OCc3ccccc3)C1=O)C2 (stereo partly shown) [Example 99, benzyl 3-((1-((αR)-6-((3-carbamoylpyridin-2-yl)oxy)spiro[3.3]heptan-2-yl)-2,5-dioxoimidazolidin-4-yl)methyl)-8-azabicyclo[3.2.1] octane-8-carboxylate] |
